Values quoted from earlier work in patent US20160374912A1, “TOPICALLY APPLICABLE CHEMICAL PEEL COMPOSITION” (L'OREAL, priority 2015, published 2016).

How the values were obtained:
[1] = not given; remark: listed apart in the source

| Compound | Log P | pKA [1] |
| --- | --- | --- |
| Oc1cccc(O)c1 [Resorcinol] | 2.47 | 9.32-9.81 |
| CC(c1ccccc1)c1ccc(O)cc1O (stereo not shown) [Phenylethyl Resorcinol] | 2.11 | 9.77-10.77 |
